Columns and labels:
[1] = Drug uptake in human COX1-negative HCA7 cells at 10 uM incubated for 30 mins by Hoechst-33258 staining based confocal laser scanning microscopic analysis; type: ADME, cell-based; details: hca7, 0.5 h
[2] = Drug uptake in human OVCAR-3 cells by measuring perinuclear fluorescence staining at 10 uM incubated for 30 mins by Hoechst-33258 staining based confocal laser scanning microscopic analysis; type: ADME, cell-based; details: ovcar-3, 0.5 h

- Drug uptake [1]: Not Active
- Drug uptake [2]: Active
Structure (SMILES): O=C(O)c1ccc(-n2nc(-c3ccco3)cc2-n2cc(CNc3ccc([N+](=O)[O-])c4nonc34)nn2)cc1

— ChEMBL document CHEMBL4706749, “Development of Fluorescence Imaging Probes for Labeling COX-1 in Live Ovarian Cancer Cells” (ACS Med Chem Lett, 2021)
